{
  "source": "patent US9492471B2",
  "about": "“Methods of treating a disease or disorder associated with Bruton'S Tyrosine Kinase” (Celgene Avilomics Research, Inc., priority 2013, dated 2016)",
  "assay_in_all_cases": "HotSpot kinase profiling",
  "format_in_all_cases": "biochemical",
  "key": {"[1]": {"biological_target": "T1, LRRK2 (Homo sapiens, UniProt Q5S007)", "T1 construct": "purchased Reaction Biology Corp", "summary_of_the_method": "(§1)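 Percent inhibition, averaged when run more than once and referenced to a DMSO negative control, came from a radioactive filter-binding readout on P81 paper. Reactions of kinase with freshly made substrate and cofactors ran for 2 h at room temperature.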"}, "[2]": {"biological_target": "T2, CDK2/cyclin E (Homo sapiens, UniProt P24941)", "T2 construct": "purchased Reaction Biology Corp", "summary_of_the_method": "as §1"}, "[3]": {"biological_target": "T3, MEKK1 (Homo sapiens, UniProt Q13233)", "T3 construct": "purchased Reaction Biology Corp", "T3 sequence (Q13233 whole entry)": "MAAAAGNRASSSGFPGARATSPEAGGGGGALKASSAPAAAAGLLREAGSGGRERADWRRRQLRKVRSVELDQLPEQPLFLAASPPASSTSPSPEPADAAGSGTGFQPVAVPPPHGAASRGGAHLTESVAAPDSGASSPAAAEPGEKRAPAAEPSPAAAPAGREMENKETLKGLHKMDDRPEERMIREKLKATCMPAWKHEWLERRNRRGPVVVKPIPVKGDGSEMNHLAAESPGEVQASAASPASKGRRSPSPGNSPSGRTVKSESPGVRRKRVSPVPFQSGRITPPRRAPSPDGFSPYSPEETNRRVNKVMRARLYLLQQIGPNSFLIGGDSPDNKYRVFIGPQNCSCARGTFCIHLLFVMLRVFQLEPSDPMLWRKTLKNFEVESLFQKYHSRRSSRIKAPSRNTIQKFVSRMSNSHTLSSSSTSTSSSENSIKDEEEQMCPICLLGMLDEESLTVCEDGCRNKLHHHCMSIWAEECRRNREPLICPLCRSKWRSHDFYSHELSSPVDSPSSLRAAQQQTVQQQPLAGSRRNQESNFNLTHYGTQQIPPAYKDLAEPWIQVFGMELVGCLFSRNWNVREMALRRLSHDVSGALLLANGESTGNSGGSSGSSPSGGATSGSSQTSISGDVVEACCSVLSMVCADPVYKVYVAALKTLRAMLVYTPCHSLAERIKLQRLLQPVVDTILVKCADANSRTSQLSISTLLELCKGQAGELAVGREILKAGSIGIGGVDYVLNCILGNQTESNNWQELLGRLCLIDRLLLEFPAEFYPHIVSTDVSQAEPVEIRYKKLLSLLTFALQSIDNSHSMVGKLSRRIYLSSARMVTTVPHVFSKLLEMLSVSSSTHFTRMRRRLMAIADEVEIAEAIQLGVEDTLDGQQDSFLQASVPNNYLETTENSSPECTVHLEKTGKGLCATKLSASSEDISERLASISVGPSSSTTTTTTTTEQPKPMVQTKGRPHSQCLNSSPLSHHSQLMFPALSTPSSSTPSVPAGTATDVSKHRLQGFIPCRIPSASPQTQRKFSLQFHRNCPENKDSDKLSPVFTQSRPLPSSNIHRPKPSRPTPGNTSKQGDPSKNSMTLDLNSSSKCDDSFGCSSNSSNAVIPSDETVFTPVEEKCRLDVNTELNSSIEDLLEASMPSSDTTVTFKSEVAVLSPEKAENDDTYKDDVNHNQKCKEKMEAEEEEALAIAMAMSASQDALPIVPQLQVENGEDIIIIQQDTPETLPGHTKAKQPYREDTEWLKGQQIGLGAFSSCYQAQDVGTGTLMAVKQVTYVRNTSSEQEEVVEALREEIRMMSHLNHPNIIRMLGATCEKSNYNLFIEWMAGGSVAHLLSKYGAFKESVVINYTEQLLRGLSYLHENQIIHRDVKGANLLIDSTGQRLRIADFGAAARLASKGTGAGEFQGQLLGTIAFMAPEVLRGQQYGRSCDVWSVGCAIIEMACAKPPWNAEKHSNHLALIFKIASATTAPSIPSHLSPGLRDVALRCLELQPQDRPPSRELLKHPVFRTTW", "summary_of_the_method": "as §1"}, "[4]": {"biological_target": "T4, BLK (Homo sapiens, UniProt P51451)", "T4 construct": "purchased Reaction Biology Corp", "summary_of_the_method": "as §1"}, "[5]": {"biological_target": "T5, PHKg2 (Homo sapiens, UniProt P15735)", "T5 construct": "purchased Reaction Biology Corp", "T5 sequence (P15735 1-406)": "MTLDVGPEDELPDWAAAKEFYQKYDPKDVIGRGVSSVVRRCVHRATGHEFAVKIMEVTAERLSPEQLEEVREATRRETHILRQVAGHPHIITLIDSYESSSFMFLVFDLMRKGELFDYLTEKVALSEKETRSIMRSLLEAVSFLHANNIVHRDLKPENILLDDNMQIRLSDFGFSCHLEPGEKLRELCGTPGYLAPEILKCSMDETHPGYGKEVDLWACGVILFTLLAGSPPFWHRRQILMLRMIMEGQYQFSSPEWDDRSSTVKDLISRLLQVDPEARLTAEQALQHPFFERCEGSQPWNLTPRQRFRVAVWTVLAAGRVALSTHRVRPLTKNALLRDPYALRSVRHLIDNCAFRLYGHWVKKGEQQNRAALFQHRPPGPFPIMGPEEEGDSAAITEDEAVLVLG", "summary_of_the_method": "as §1"}, "[6]": {"biological_target": "T6, SIK2 (Homo sapiens, UniProt Q9H0K1)", "T6 construct": "purchased Reaction Biology Corp", "T6 sequence (Q9H0K1 whole entry)": "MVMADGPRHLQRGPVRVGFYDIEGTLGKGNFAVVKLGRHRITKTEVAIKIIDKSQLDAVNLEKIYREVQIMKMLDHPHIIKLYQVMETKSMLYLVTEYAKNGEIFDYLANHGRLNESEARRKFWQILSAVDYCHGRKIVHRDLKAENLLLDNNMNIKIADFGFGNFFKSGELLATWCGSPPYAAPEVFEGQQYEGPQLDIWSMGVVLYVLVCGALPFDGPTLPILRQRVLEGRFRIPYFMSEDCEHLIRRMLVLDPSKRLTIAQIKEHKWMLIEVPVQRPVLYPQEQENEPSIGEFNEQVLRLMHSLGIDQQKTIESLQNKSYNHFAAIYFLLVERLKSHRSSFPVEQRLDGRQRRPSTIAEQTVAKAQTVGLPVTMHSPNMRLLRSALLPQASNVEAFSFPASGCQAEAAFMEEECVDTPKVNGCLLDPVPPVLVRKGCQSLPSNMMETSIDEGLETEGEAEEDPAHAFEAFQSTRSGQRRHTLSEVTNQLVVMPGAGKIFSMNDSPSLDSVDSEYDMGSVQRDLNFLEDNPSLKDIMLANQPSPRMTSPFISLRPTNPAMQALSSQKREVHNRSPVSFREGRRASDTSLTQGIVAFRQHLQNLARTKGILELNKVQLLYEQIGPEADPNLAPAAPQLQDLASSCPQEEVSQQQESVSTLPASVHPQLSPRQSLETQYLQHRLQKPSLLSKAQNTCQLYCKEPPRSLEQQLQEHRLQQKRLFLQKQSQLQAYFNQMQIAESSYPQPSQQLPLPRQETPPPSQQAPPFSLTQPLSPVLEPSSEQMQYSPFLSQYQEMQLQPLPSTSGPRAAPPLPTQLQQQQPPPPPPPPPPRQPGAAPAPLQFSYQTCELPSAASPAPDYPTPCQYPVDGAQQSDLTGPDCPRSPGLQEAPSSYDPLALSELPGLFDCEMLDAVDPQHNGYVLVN", "summary_of_the_method": "as §1"}, "[7]": {"biological_target": "T7, PKCtheta (Homo sapiens, UniProt Q04759)", "T7 construct": "purchased Reaction Biology Corp", "T7 sequence (Q04759 whole entry)": "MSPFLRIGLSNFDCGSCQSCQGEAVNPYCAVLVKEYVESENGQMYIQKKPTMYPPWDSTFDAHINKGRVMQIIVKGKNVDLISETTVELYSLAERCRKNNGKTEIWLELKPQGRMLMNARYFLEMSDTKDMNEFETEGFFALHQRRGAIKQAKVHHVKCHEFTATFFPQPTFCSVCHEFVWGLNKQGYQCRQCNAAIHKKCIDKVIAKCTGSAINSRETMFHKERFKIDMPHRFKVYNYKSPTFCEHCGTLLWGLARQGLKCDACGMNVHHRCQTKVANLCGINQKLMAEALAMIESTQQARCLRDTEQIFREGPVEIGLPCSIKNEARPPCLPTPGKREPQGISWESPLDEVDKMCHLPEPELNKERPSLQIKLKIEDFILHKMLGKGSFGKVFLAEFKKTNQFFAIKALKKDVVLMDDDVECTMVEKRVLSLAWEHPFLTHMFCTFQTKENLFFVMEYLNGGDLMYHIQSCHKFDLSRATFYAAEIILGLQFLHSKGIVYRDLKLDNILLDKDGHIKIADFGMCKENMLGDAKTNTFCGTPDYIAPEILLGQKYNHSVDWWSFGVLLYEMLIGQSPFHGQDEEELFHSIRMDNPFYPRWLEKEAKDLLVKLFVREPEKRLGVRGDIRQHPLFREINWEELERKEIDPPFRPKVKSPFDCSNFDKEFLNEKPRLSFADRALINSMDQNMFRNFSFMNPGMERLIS", "summary_of_the_method": "as §1"}, "[8]": {"biological_target": "T8, PKCeta (Homo sapiens, UniProt P24723)", "T8 construct": "purchased Reaction Biology Corp", "T8 sequence (P24723 whole entry)": "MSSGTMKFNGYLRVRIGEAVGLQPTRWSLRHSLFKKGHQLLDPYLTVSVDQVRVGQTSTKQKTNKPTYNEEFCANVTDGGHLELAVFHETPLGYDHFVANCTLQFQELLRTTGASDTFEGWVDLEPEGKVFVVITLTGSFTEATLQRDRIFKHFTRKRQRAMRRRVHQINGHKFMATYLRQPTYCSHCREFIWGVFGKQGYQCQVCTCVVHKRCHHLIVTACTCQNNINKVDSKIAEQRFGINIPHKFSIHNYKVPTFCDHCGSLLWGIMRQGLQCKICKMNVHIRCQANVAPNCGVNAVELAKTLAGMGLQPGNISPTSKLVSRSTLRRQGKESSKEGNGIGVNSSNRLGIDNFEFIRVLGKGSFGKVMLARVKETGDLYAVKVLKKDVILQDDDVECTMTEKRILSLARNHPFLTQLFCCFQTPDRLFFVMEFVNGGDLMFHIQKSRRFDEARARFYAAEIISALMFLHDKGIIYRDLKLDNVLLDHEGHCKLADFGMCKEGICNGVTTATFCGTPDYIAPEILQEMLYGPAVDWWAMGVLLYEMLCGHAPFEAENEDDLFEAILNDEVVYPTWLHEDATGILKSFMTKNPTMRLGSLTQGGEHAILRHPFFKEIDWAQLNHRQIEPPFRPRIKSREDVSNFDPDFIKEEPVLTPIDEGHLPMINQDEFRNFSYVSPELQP", "summary_of_the_method": "as §1"}, "[9]": {"biological_target": "T9, CLK1 (Homo sapiens, UniProt P49759)", "T9 construct": "purchased Reaction Biology Corp", "T9 sequence (P49759 whole entry)": "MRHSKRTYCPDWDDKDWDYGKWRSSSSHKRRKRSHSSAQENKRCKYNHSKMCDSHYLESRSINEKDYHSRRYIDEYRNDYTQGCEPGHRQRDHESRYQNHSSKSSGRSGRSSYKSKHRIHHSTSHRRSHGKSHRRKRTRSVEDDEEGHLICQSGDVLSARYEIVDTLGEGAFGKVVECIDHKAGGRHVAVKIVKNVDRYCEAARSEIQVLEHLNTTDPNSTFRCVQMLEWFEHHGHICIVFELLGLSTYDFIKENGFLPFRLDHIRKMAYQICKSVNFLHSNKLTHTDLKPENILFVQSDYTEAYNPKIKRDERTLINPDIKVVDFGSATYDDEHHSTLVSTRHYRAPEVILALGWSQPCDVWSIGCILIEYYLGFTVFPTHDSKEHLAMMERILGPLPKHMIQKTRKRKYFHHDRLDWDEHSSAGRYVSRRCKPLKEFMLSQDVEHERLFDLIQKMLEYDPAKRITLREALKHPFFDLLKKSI", "summary_of_the_method": "as §1"}, "[10]": {"biological_target": "T10, NEK3 (Homo sapiens, UniProt P51956)", "T10 construct": "purchased Reaction Biology Corp", "T10 sequence (P51956 1-506)": "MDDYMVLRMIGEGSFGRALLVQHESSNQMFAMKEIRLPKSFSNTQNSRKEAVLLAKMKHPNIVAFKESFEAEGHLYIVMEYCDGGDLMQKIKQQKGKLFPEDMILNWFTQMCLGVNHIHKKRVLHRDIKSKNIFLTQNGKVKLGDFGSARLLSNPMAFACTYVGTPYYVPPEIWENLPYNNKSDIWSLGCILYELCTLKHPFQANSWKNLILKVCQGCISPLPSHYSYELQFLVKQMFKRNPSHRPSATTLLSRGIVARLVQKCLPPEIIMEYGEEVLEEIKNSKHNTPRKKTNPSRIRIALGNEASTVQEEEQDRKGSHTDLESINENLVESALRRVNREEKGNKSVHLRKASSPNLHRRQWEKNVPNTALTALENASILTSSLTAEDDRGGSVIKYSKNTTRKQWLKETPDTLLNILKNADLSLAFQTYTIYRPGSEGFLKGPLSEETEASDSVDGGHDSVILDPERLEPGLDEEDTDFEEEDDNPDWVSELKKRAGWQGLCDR", "summary_of_the_method": "as §1"}, "[11]": {"biological_target": "T11, STK33 (Homo sapiens, UniProt Q9BYT3)", "T11 construct": "purchased Reaction Biology Corp", "summary_of_the_method": "as §1"}, "[12]": {"biological_target": "T12, ALK1/ACVRL1 (Homo sapiens, UniProt P37023)", "T12 construct": "purchased Reaction Biology Corp", "T12 sequence (P37023 22-503)": "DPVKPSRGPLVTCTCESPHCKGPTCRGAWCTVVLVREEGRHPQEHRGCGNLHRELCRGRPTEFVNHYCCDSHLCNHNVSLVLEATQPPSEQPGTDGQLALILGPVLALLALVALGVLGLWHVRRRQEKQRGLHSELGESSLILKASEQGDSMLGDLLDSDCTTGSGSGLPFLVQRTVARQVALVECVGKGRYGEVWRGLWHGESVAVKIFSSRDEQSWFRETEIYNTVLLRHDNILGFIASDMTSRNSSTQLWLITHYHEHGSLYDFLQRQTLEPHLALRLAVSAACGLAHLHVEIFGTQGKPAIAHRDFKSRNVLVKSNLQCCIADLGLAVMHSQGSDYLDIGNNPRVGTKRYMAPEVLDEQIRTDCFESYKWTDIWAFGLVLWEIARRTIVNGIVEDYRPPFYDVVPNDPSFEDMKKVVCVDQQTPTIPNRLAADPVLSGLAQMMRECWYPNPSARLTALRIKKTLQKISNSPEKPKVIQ", "summary_of_the_method": "as §1"}, "[13]": {"biological_target": "T13, MLK3/MAP3K11 (Homo sapiens, UniProt Q16584)", "T13 construct": "purchased Reaction Biology Corp", "summary_of_the_method": "as §1"}, "[14]": {"conditions": "read-out: % Enzyme Activity (relative to DMSO controls) Run 1"}, "[15]": {"conditions": "read-out: % Enzyme Activity (relative to DMSO controls) Run 2"}},
  "note": "Read-outs that look alike come from different tables or passages of the source.",
  "data": [
    {"smiles": "C=CC(=O)Nc1cccc(Nc2nc(Nc3ccc(OCCOC)c(F)c3)ncc2F)c1", "note": "[Compound 2]", "values": [
      {"measurement": "inhibition at 3 µM", "setting": "[1]", "result": 65.9, "unit": "%"},
      {"measurement": "remaining activity at 3 µM", "setting": "[1]; [14]", "result": 33, "unit": "%"},
      {"measurement": "remaining activity at 3 µM", "setting": "[1]; [15]", "result": 35.1, "unit": "%"},
      {"measurement": "inhibition at 3 µM", "setting": "[2]", "result": 10, "unit": "%"},
      {"measurement": "remaining activity at 3 µM", "setting": "[2]; [14]", "result": 87.9, "unit": "%"},
      {"measurement": "remaining activity at 3 µM", "setting": "[2]; [15]", "result": 92, "unit": "%"},
      {"measurement": "inhibition at 3 µM", "setting": "[3]", "result": -14.7, "unit": "%"},
      {"measurement": "remaining activity at 3 µM", "setting": "[3]; [14]", "result": 113, "unit": "%"},
      {"measurement": "remaining activity at 3 µM", "setting": "[3]; [15]", "result": 117, "unit": "%"},
      {"measurement": "inhibition at 3 µM", "setting": "[4]", "result": 93.7, "unit": "%"},
      {"measurement": "remaining activity at 3 µM", "setting": "[4]; [14]", "result": 6.3, "unit": "%"},
      {"measurement": "remaining activity at 3 µM", "setting": "[4]; [15]", "result": 6.37, "unit": "%"},
      {"measurement": "inhibition at 3 µM", "setting": "[5]", "result": -14.7, "unit": "%"},
      {"measurement": "remaining activity at 3 µM", "setting": "[5]; [14]", "result": 118, "unit": "%"},
      {"measurement": "remaining activity at 3 µM", "setting": "[5]; [15]", "result": 112, "unit": "%"},
      {"measurement": "inhibition at 3 µM", "setting": "[6]", "result": 43.3, "unit": "%"},
      {"measurement": "remaining activity at 3 µM", "setting": "[6]; [14]", "result": 56.3, "unit": "%"},
      {"measurement": "remaining activity at 3 µM", "setting": "[6]; [15]", "result": 57.1, "unit": "%"},
      {"measurement": "inhibition at 3 µM", "setting": "[7]", "result": 16.1, "unit": "%"},
      {"measurement": "remaining activity at 3 µM", "setting": "[7]; [14]", "result": 83.7, "unit": "%"},
      {"measurement": "remaining activity at 3 µM", "setting": "[7]; [15]", "result": 84.1, "unit": "%"},
      {"measurement": "inhibition at 3 µM", "setting": "[8]", "result": -12.8, "unit": "%"},
      {"measurement": "remaining activity at 3 µM", "setting": "[8]; [14]", "result": 109, "unit": "%"},
      {"measurement": "remaining activity at 3 µM", "setting": "[8]; [15]", "result": 117, "unit": "%"},
      {"measurement": "inhibition at 3 µM", "setting": "[9]", "result": 24.1, "unit": "%"},
      {"measurement": "remaining activity at 3 µM", "setting": "[9]; [14]", "result": 74.4, "unit": "%"},
      {"measurement": "remaining activity at 3 µM", "setting": "[9]; [15]", "result": 77.4, "unit": "%"},
      {"measurement": "inhibition at 3 µM", "setting": "[10]", "result": 24.1, "unit": "%"},
      {"measurement": "remaining activity at 3 µM", "setting": "[10]; [14]", "result": 76.7, "unit": "%"},
      {"measurement": "remaining activity at 3 µM", "setting": "[10]; [15]", "result": 75.1, "unit": "%"},
      {"measurement": "inhibition at 3 µM", "setting": "[11]", "result": 48.1, "unit": "%"},
      {"measurement": "remaining activity at 3 µM", "setting": "[11]; [14]", "result": 51.2, "unit": "%"},
      {"measurement": "remaining activity at 3 µM", "setting": "[11]; [15]", "result": 52.5, "unit": "%"},
      {"measurement": "inhibition at 3 µM", "setting": "[12]", "result": -24.4, "unit": "%"},
      {"measurement": "remaining activity at 3 µM", "setting": "[12]; [14]", "result": 125, "unit": "%"},
      {"measurement": "remaining activity at 3 µM", "setting": "[12]; [15]", "result": 124, "unit": "%"},
      {"measurement": "inhibition at 3 µM", "setting": "[13]", "result": 73.4, "unit": "%"},
      {"measurement": "remaining activity at 3 µM", "setting": "[13]; [14]", "result": 27.9, "unit": "%"},
      {"measurement": "remaining activity at 3 µM", "setting": "[13]; [15]", "result": 25.2, "unit": "%"}
    ]}
  ]
}
